# Results taken from patent US20250041190A1, “Composition and application, in particular cosmetic” (MICROPHYT, priority 2021, published 2025).
# How the values were obtained:
# neuropeptide CGRP [1] = assay: CGRP ELISA assay in co-culture of keratinocytes and sensory neurons, oxidative stress with AITC; type: cell-based, human; conditions: positive control: AITC 1 mM alone, 30 min stress; unstressed control (DMSO 0.2%) = 100; n=6
# Experimental: (§1) Sensory neurons were obtained from hiPS cells (human induced pluripotent stem cells), which were themselves obtained from human fibroblasts. The cells were seeded and maintained for 6 days in a differentiation-inducing medium at 37° C. (5% CO2). The culture medium was changed every 2 days. After 9 days in culture, the culture medium was replaced with a maturation medium. Cells were maintained in culture at a temperature of 37° C. under 5% CO2. The culture medium was changed every 2-3 days. After 14 days in culture, commercial keratinocytes from an adult donor (Lonza) were added to the differentiated hiPS cell culture. The co-culture was maintained in a culture medium consisting of a mixture of maturation medium and keratinocyte growth medium (Promocell) at a temperature of 37° C. under 5% CO2. The culture medium was changed every 2-3 days.
# (§2) After a 17-day co-culture period, the composition was added to the medium at a final concentration by weight relative to the total weight of the medium and composition of 0.01% or 0.05% (w/w). […]
# CGRP assay: After a 30-minute stress period, the culture supernatants were recovered and a CGRP assay by ELISA was performed. The results are expressed as the mean of 6 samples (n=6). […]
# [2] = system: MOR receptor (μ-opioid receptor); assay: MOR receptor immunolabeling in co-culture of human keratinocytes and sensory neurons stressed with AITC; type: cell-based; conditions: positive control: AITC 1 mM alone; composition-free control (DMSO 0.2%) = 100; n=6
# Experimental: as §1, §2
# (§3) Photographs were taken with an automated microscope (InCell 2200; GE Healthcare) at ×20 magnification. MOR marker expression density was measured and compared with the control condition, corresponding to the mean of 6 samples (n=6). […]
# [3] = system: co-culture of sensory neurons and keratinocytes; assay: Length of neuronal extensions in co-culture of sensory neurons and keratinocytes stressed with capsaicin; type: cell-based, human; conditions: positive control: capsaicin 10 μM alone; composition-free control (DMSO 0.2%) = 100; n=6
# Experimental: as §1
# After a 17-day co-culture period, the composition was added to the medium at a final concentration by weight relative to the total weight of the medium and composition of 0.01% or 0.05% (w/w).
# After a 24-hour incubation period, capsaicin (10 µM) or AITC (1 mM) or DMSO (0.2% w/w) as a control, was added to the co-culture in the presence of the composition according to the invention. […]
# A neuron count was performed and the length of the neuronal extensions was measured for each condition. […]
# [4] = system: MOR receptor (μ-opioid receptor); assay: MOR receptor immunolabeling in co-culture of human keratinocytes and sensory neurons stressed with capsaicin; type: cell-based; conditions: positive control: capsaicin 10 μM alone; composition-free control (DMSO 0.2%) = 100; n=6
# Experimental: as §1, §2, §3
# neuropeptide CGRP [5] = assay: CGRP ELISA assay in co-culture of keratinocytes and sensory neurons, oxidative stress with capsaicin; type: cell-based, human; conditions: positive control: capsaicin 10 μM alone, 30 min stress; unstressed control (DMSO 0.2%) = 100; n=6
# Experimental: Sensory neurons were obtained from hiPS cells (human induced pluripotent stem cells), which were themselves obtained from human fibroblasts. The cells were seeded and maintained for 6 days in a differentiation-inducing medium at 37° C. (5% CO2). The culture medium was changed every 2 days. After 9 days in culture, the culture medium was replaced with a maturation medium. Cells were maintained in culture at a temperature of 37° C. under 5% CO2. The culture medium was changed every 2-3 days. After 14 days in culture, commercial keratinocytes from an adult donor (Lonza) were added to the differentiated hiPS cell culture. The co-culture was maintained in a culture medium consisting of a mixture of maturation medium and keratinocyte growth medium (Promocell) at a temperature of 37° C. under 5% CO2. The culture medium was changed every 2-3 days. After a 17-day co-culture period, the composition was added to the medium at a final concentration by weight relative to the total weight of the medium and composition of 0.01% or 0.05% (w/w). After a 24-hour incubation period, capsaicin (10 µM) or AITC (1 mM) or DMSO (0.2% w/w) as a control, was added to the co-culture in the presence of the composition according to the invention. […] The results are expressed as the mean of 6 samples (n=6).
SMILES,Protein amount of CGRP (%) (neuropeptide CGRP [1]),Level of MOR receptor protein expression (%) [2] [%],Length of neuronal extensions/nbr of neurons (%) [3] [%],Level of MOR receptor protein expression (%) [4] [%],Protein amount of CGRP (%) (neuropeptide CGRP [5])
"C=CCN=C=S [AITC, allyl isothiocyanate]",132,78,–,–,–
COc1cc(CNC(=O)CCCC/C=C/C(C)C)ccc1O [capsaicin],–,–,76,82,135
